{"source": "the NIST ThermoML archive (doi:10.1016/j.fluid.2018.01.015)", "key": {"[1]": {"conditions": "Crystal; DTA"}, "[2]": {"assay": "Molar enthalpy of transition or fusion", "conditions": "Crystal; DSC"}}, "note": "Numbers after ± are expanded uncertainties.", "data": [{"smiles": "Cc1cc(C)c(C(=O)P(=O)(c2ccccc2)c2ccccc2)c(C)c1", "note": "[(2,4,6-trimethylbenzoyl) diphenylphosphine oxide]", "values": [{"measurement": "Normal melting temperature", "setting": "[1]", "result": "92.66 ± 0.39", "unit": "°C"}, {"measurement": "Molar enthalpy of transition or fusion", "setting": "[2]", "result": "6.03 ± 0.172", "unit": "kcal/mol"}]}]}
